Experimental data as given in patent EP2486923B1, “Histone deacetylase (HDAC) inhibiting compounds and method of making same” (Dr. Felix Jäger und Dr. Stefan Drinkuth Laborgemeinschaft …, priority 2011, dated 2012).
pIC50: −log10 of the molar value. Where two headings read alike, the source gives them in different places.

Columns and labels:
Test in all cases: Two-step fluorescence assay for determination of IC50
Type in all cases: biochemical
[1] = target: T1, HDAH (Alcaligenes sp., UniProt Q70I53)
T1 sequence (Q70I53 1-369): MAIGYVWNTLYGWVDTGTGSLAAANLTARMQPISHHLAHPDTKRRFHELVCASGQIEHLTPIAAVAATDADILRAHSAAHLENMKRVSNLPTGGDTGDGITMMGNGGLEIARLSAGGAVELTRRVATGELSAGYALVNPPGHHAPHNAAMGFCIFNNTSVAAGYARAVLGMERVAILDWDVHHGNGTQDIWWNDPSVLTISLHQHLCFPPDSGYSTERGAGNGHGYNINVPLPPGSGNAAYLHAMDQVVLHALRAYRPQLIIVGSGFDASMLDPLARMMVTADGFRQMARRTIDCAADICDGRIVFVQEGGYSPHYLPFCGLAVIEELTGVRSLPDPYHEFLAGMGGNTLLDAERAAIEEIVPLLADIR
Experimental: (§1) In order to evaluate the inhibitory characteristics of example compounds of the invention, IC50 values were determined for such compounds. […] A two-step assay was used for this purpose.
(§2) To obtain the IC50 value for an individual compound/HDAC pair, a two-step assay can be performed based on a fluorescence signal. In principle, an ε-acetylated lysine substrate is deacetylated by histone-deacetylases in the first step. Trypsin releases detectable 7-amino-4-methylcoumarin (ex = excitation wavelength: 390 nm, em = emission wavelength: 460 nm) by cleaving the substrate at the deacetylated lysine in a subsequent reaction^[9]. The enzyme activity is inhibited by a suitable HDACi.
(§3) The obtained data are interpreted using a four parameter fit. Based on this fit, the IC50 value can be estimated. Analysis ot the data and calculation of the IC50 values was accomplished using a four-parameter logistic model protocol as previously described by Vølund^[16]. For nonlinear fits the Levenberg-Marquardt algorithm was applied^[17],[18]. […] Table 1: IC50 values in µM for synthesized compounds of the invention with a perfluorinated linker. […] HDAH = HDAC-like amidohydrolase

[2] = target: HDAC1 (Homo sapiens, UniProt Q13547)
Experimental: as §1, §2, §3

[3] = target: T2, HDAC6 (Homo sapiens, UniProt Q9UBN7)
T2 sequence (Q9UBN7 1-1215): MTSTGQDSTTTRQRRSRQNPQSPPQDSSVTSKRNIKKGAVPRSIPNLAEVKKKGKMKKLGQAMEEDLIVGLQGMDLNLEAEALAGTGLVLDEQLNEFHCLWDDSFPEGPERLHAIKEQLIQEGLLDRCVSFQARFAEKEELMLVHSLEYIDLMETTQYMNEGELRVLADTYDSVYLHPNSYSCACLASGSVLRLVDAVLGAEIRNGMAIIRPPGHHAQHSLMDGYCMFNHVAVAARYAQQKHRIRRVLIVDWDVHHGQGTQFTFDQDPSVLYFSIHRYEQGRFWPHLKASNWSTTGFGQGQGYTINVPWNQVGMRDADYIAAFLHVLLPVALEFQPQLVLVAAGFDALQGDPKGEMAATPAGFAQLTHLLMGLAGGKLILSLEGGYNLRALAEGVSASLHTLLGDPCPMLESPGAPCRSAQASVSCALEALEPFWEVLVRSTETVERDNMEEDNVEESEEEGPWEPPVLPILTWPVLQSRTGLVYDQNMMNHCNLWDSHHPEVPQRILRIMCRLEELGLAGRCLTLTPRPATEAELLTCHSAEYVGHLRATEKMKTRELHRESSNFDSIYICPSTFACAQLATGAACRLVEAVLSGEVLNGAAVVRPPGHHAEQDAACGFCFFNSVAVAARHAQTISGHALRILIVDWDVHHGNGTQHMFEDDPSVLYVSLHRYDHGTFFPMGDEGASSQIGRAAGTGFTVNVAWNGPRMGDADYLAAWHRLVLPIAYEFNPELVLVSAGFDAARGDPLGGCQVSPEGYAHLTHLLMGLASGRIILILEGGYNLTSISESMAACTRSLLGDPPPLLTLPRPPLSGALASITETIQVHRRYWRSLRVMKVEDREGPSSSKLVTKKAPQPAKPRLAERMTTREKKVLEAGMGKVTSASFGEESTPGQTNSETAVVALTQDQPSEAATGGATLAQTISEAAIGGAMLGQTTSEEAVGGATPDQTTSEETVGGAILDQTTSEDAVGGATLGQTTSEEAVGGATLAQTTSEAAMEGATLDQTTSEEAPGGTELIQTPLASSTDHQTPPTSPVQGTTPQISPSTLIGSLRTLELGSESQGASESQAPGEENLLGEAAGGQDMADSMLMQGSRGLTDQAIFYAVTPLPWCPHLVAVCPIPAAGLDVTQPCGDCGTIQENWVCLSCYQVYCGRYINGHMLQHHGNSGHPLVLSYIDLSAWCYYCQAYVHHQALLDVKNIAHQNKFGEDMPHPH
Experimental: as §1, §2, §3

[4] = target: T3, HDAC8 (Homo sapiens, UniProt Q9BY41)
T3 sequence (Q9BY41 1-377): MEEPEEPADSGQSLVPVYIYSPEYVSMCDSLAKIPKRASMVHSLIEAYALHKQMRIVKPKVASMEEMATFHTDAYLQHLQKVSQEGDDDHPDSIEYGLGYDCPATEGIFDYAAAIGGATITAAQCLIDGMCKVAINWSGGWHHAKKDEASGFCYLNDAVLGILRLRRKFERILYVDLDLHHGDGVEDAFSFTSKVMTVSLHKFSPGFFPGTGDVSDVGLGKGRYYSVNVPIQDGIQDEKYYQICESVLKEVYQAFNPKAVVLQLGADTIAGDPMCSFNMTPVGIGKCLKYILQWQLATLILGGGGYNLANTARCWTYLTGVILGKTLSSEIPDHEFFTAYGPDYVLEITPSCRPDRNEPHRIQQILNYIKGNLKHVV
Experimental: as §1, §2, §3

[5] = target: T4, HDAC7 (Homo sapiens, UniProt Q8WUI4)
T4 sequence (Q8WUI4 1-952): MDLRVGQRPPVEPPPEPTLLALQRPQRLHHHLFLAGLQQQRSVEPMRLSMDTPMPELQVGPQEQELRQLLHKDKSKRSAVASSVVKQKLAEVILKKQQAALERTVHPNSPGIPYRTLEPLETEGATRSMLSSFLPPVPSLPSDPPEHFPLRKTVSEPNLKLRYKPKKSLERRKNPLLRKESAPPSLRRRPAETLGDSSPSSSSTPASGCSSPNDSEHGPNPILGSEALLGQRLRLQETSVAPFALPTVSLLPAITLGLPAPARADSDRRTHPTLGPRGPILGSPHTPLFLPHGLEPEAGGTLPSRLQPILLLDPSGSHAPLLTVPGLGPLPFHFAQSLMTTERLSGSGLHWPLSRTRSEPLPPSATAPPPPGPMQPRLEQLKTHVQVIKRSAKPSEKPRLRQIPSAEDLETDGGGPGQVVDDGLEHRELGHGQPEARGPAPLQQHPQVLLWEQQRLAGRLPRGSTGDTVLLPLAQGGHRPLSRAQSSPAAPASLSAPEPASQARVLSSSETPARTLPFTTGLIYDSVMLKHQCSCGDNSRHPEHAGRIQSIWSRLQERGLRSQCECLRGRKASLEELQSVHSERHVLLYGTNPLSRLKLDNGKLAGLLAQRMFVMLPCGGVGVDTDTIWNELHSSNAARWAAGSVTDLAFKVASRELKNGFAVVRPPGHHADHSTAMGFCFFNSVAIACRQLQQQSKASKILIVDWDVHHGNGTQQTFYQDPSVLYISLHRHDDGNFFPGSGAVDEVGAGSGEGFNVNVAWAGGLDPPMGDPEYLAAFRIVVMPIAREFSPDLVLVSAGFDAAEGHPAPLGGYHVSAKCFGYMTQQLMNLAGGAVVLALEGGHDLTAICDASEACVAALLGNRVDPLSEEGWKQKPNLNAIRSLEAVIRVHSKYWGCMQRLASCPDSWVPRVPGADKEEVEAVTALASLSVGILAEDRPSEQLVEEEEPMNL
Experimental: as §1, §2, §3

[6] = HDAC-like amidohydrolase, ε-acetylated lysine substrate, trypsin release of 7-amino-4-methylcoumarin, four parameter fit, read-out: IC50 values HDAH
[7] = ε-acetylated lysine substrate, trypsin release of 7-amino-4-methylcoumarin, four parameter fit, read-out: IC50 values HDAC1
[8] = ε-acetylated lysine substrate, trypsin release of 7-amino-4-methylcoumarin, four parameter fit, read-out: IC50 values HDAC6
[9] = ε-acetylated lysine substrate, trypsin release of 7-amino-4-methylcoumarin, four parameter fit, read-out: IC50 values HDAC7

Sequence of HDAC1 (Q13547 whole entry): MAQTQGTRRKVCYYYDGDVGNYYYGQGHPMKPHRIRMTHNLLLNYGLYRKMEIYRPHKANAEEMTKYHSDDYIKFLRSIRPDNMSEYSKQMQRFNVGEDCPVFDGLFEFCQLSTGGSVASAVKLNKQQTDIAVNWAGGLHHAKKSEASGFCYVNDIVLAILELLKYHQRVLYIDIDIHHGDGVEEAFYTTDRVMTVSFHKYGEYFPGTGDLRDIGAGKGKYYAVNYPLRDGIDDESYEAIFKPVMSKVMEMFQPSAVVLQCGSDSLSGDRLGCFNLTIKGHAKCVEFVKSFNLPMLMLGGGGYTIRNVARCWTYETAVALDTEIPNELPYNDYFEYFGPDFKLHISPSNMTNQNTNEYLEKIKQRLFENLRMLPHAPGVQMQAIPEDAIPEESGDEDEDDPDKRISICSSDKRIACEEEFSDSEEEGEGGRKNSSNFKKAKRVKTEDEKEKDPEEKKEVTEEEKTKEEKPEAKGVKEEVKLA

Row | pIC50 ([4]; ε-acetylated lysine substrate, trypsin release of 7-amino-4-methylcoumarin, four parameter fit, read-out: IC50 values HDAC8) | SMILES | pIC50 [1, 6] | pIC50 [2, 7] | pIC50 [3, 8] | pIC50 [4] | pIC50 [5, 9] | pIC50 [1] | pIC50 [2] | pIC50 [3] | pIC50 [5]
1 |  | O=C(NO)C(F)(F)C(F)(F)C(F)(F)C(F)(F)C(F)(F)C(F)(F)C(=O)Nc1ccc(-c2cnnn2-c2ccccc2)cc1 [LU236, 2,2,3,3,4,4,5,5,6,6,7,7-Dodecafluorooctanedioic acid hydroxyamide [4-(1-phenyl-1H-[1,2,3]triazol-5-yl)phenyl]amide] | 4.98 | 4.08 | 4.25 | < 4.00 | 4.79 |  |  |  | 
2 | < 4.00 | O=C(NO)C(F)(F)C(F)(F)C(F)(F)C(F)(F)C(F)(F)C(F)(F)C(=O)Nc1ccc(-c2cn(-c3ccccc3)nn2)cc1 [LU 233, 2,2,3,3,4,4,5,5,6,6,7,7-Dodecafluorooctanedioic acid hydroxyamide {4-[1-phenyl-1H-(1,2,3)triazol-4-yl]phenyl}amide] | 4.77 | < 4.00 | 5.01 |  | 4.37 |  |  |  | 
3 |  | O=C(NO)C1CCCCC1C(=O)Nc1ccccc1 (stereo not drawn) [RK216, reference compound] |  |  |  | < 4.00 |  | 4.46 | < 4.00 | 4.36 | < 4.00
